Measured values published in patent US12528767B2, “HDAC6 inhibitors and uses thereof” (Eikonizo Therapeutics, Inc., priority 2019, dated 2026).

Test system: adult primary rat dorsal root ganglia (DRG)
Test: In vitro chemotherapy-induced peripheral neuropathy in rat DRGs treated with cisplatin
Assay type: cell-based, Sprague Dawley rat
Settings: 5 μM compound + 0.5 mM cisplatin, 4 days
Procedure: ACY-1083, obtained from MedChem Express, is a published HDAC6-selective inhibitor and was used as a benchmark. Blinded DMSO was used as an additional negative control. […] Nerve degeneration was evaluated by blebs per area as visualized by fluorescent imaging of beta tubulin staining. Axon area was also evaluated by fluorescent imaging of beta tubulin staining.
Select exemplary compounds were evaluated for prevention of nerve degeneration in an in vitro chemotherapy induced neuropathy model using adult primary rat dorsal root ganglia (DRG). Compounds were blinded for treatment and analysis, using DMSO as a vehicle control. […] Blebs (fragments) signify the beginning of the nerve degeneration process. Total axon area is related to neuron survival and is a more general measure of neuroprotection.
Dissociation solution (100 mL of HBSS with 2 mL of HEPES (1 M, pH 7.25)) was prepared and precooled to 4° C. on study day 1. A 24 well cell culture plate was coated with ECL. Each well was coated with 0.3 mL of ECL solution (1:25 in sterile PBS) and incubated overnight at 37° C. ECL solution was aspirated and the well plate was rinsed with neurobasal medium on study day 2. […]

SMILES	Axon area compared to vehicle in the presence of cisplatin (FIG. 3B)	Nerve degeneration: blebs per area compared to vehicle in the presence of cisplatin (FIG. 3A)
O=C(NO)c1cc(F)c2c(c1)CCN1CCC[C@@H]21 (single isomer, unassigned) [compound 79]	increased axon area	–
O=C(NO)c1ccc(CN2C[C@H]3CC[C@@H]2CO3)c(F)c1 (single isomer, unassigned) [compound 173]	–	decreased blebs per area
